Test results taken from patent publication US20020133846A1, “Method for protecting plants” (priority 1996, published 2002).
Like-named read-outs stand apart in the source and are kept apart here.

Key:
[1] = test system: Pyricularia oryzae; type: in vivo
[2] = test system: Peronospora tabacina; assay: Action against Peronospora tabacina on tobacco plants
Method: Tobacco plants (6 weeks old) were sprayed with a formulated solution of the test compound. Four days after treatment, the plants were inoculated with a sporangia suspension of the fungus, kept at high humidity for 4 to 5 days and then incubated further under a normal day/night sequence. Evaluation of the symptoms in the tests was based on the leaf surface infested with fungus. The infestation of the untreated plants corresponded to 0 % action.

[3] = test system: Colletotrichum sp.; assay: Action against Colletotrichum sp. (anthracnose) on chili, field; type: in vivo; settings: Table 16, chili fruits after fifth spraying
Text: Effects on crop yield: In a plot of land about 10 m^2 (test location: Cikampek, Java, Indonesia), chili plants were sprayed a total of 7 times at intervals of about 7 days with 500-700 liters of spray mixture per hectare. Three days after the first spraying, the plants were infected artificially with the fungus.

[4] = test system: Pyricularia oryzae; type: in vivo; settings: Table 13, comp. I alone 6 ppm
[5] = test system: Peronospora parasitica isolate Emwa; assay: Fungal resistance to Peronospora parasitica Emwa after BTH treatment, Ws and NIM1-overexpressing lines; type: in vivo; settings: 10 μM BTH
[6] = test system: Peronospora parasitica NoCo2; assay: whole plant or invertebrate; type: in vivo; settings: Hyaloperonospora parasitica, in Arabidopsis thaliana
[7] = test system: PR-1 gene expression; assay: Northern analysis of PR-1 gene expression after BTH treatment, Ws and NIM1-overexpressing lines; type: in vivo, Arabidopsis thaliana; settings: for PR-1 gene expression: 10 μM BTH
[8] = test system: Phytophthora infestans; type: in vivo
[9] = test system: Erysiphe graminis; assay: Action against Erysiphe graminis on barley (residual-protective / systemic)
Method: Residual-protective action: Barley plants about 8 cm in height were sprayed to drip point with an aqueous spray mixture (max. 0.02 % active ingredient) and were dusted 3 to 4 days later with conidia of the fungus. The infected plants were stood in a greenhouse at 22°. Fungus infestation was generally evaluated 10 days after infection.
Systemic action: Barley plants about 8 cm in height were watered with an aqueous spray mixture (max. 0.002 % active ingredient, based on the volume of the soil). […] The plants were dusted with conidia of the fungus 3 to 4 days later. The infected plants were stood in a greenhouse at 22°. Fungus infestation was generally evaluated 10 days after infection.

[10] = test system: Erysiphe graminis; assay: Action against Erysiphe graminis in wheat, field trials
Method: In field trials (10 m^2), winter wheat in the growth phase was sprayed with a spray mixture prepared with a wettable powder of the active ingredient. Infection was naturally. 10 days post-infection, the fungus infestation was assessed.

[11] = test system: Peronospora parasitica Emwa; assay: Action against Peronospora parasitica Emwa in Arabidopsis thaliana (Ws), rRNA fungal probe; type: in vivo; settings: Hyaloperonospora parasitica, in Arabidopsis thaliana; for inhibition at 10 µM: BTH alone 0.01 mM
[12] = test system: Pyricularia oryzae; type: in vivo; remark: listed apart in the source
[13] = test system: Cercospora sp.; assay: Action against Cercospora sp. (leaf spot) on chili, field; type: in vivo; settings: Table 17, leaves after sixth spraying
[14] = test system: Cercospora nicotianae; assay: Action against Cercospora nicotianae on tobacco plants; type: in vivo
[15] = test system: Peronospora parasitica NoCo2; assay: Action against Peronospora parasitica NoCo2 in Arabidopsis thaliana (Col-0), rRNA fungal probe; type: in vivo; settings: Table 29, Col-0, BTH alone 0.01 mM
[16] = Action on crop yield of chili, field; type: in vivo
[17] = test system: Puccinia recondita; assay: Action against Puccinia recondita in wheat
Method: 7-day-old wheat plants were sprayed to drip point with a spray mixture prepared from a formulated active ingredient, or combination of active ingredients. After 4 days, the treated plants were infected with a conidia suspension of the fungus, and the treated plants were subsequently incubated for 2 days at a relative atmospheric humidity of 90-100% and 20 C. 10 days post-infection, the fungus infestation was assessed.

[18] = test system: Mycosphaerella fijiensis; assay: Action against Mycosphaerella fijiensis in bananas
Method: 40 banana plants in a 300 m^2 plot were sprayed at 17-19 day intervals with a spray mixture prepared with the wettable powder of the active ingredient; in total 6 times. Infection was naturally. For evaluation, the leaf infested with the fungus was measured.

[19] = test system: Colletotrichum lagenarium; assay: Action against Colletotrichum lagenarium on Cucumis sativus L., soil application; type: in vivo
[20] = test system: Alternaria solani; assay: Action against Alternaria solani in tomatoes in the open
Method: Tomato plants on a 7 m^2 plot were sprayed at 7-day intervals with a spray mixture prepared wettable powder of the active ingredient; in total 9 times. Infection was naturally. For ion, the leaf infested with the fungus was measured.

[21] = test system: Peronospora parasitica (NoCo2); assay: Resistance to Peronospora parasitica (NoCo2) in Arabidopsis, Example 17; type: in vivo; settings: wild type Col-0 plants treated with INA 0.25 mg/ml, seven days after inoculation
[22] = test system: Pseudomonas syringae DC3000; assay: Infection with Pseudomonas syringae DC3000 in Arabidopsis, Example 17; settings: wild-type plants pretreated with INA (0.25 mg/ml)
Method: Six-week-old wild-type (±INA treatment), and cim3 plants were inoculated with a suspension of P. syringae DC3000 and the progress of the disease was followed by monitoring the growth of the bacteria extracted from infected leaves over time. […] The plants were also visually inspected for disease symptoms.
For this example, cultures of Pseudomonas syringae pv. tomato strain DC3000 were grown on King's B media (agar plates or liquid) plus rifampicin (50 jig/ml) at 28° C. […] An overnight culture was diluted and resuspended in 10 mM MgCT2 to a density of 2-5×10^5 cells per ml and injected into Arabidopsis leaves. Injections were carried out by creating a small hole with a 28 gauge needle midway up the leaf and then injecting approximately 250 μl of the diluted bacterial solution with a 1 cc syringe. At various time points, 10 random samples consisting of 3 random leaf punches from a #1 cork borer were taken from 10 plants from each treatment. The 3 leaf punches were placed in an eppendorf tube with 300 μl of 10 MM MgCl2 and ground with a pestle. The resulting bacterial suspension was appropriately diluted and plated on King's B media plus rifampicin (50 μg/ml) and grown for 4 days at 28° C. Bacterial colonies were counted and the data were subjected to Student's t statistical analysis (Sokal and Rohlf (1981), Biometry, 2nd ed. New York: W.H. Freeman and Company). […]

For `CSC(=O)c1cccc2nnsc12` [BTH], the “% action O (observed)” value ([1]; Table 15, comp. I alone 0.05 ppm) was 5%, the “% action O (observed)” value ([1]; Table 15, comp. I alone 0.1 ppm) was 18% and the “% action O (observed)” value ([1]; Table 15, comp. I alone 0.25 ppm) was 39%. The “% action O (observed)” value ([1]; Table 15, comp. I alone 0.5 ppm) was 65%, the “% action O (observed)” value ([2]; Table 28, comp. I alone 0.03 ppm) was 14% and the “% action O (observed)” value ([2]; Table 28, comp. I alone 0.1 ppm) was 34%. The “% action O (observed)” value ([2]; Table 28, comp. I alone 0.3 ppm) was 88%, the “% action O (observed)” value ([3]; comp. I alone 5 ppm) was 55% and the “% action O (observed)” value [4] was 15%. For the same molecule, the “resistance to P. parasitica” value ([5]; NIM1-overexpressing lines) was “complete or almost complete resistance”, the “susceptibility to P. parasitica (Emwa)” value ([5]; wild-type Ws plants) was “still susceptible” and the inhibition at 30 µM ([6]; read-out: Fungal Growth Inhibition % O (observed), Table 34, wt Col-0, BTH 0.03 mM) was 20.8%. The inhibition at 100 µM ([6]; read-out: Fungal Growth Inhibition % O (observed), Table 34, wt Col-0, BTH 0.1 mM) was 85.7%, the “PR-1 gene expression in leaf tissue” value ([7]; NIM1-overexpressing lines relative to wild-type, 100 μM BTH) was “much stronger and quicker” and the PR-1 gene expression ([7]; NIM1-overexpressing lines) was “much stronger response”. The PR-1 gene expression ([7]; wild-type Ws line) was “barely detectable”, the “% action O (observed)” value ([8]; Table 25, comp. I alone 5 mg a.i. per liter) was 14% and the “% action O (observed)” value ([8]; Table 25, comp. I alone 25 mg a.i. per liter) was 36%. For the same molecule, the “% action O (observed)” value ([8]; Table 25, comp. I alone 100 mg a.i. per liter) was 61%, the “% action O (observed)” value ([8]; Table 25, comp. I alone 500 mg a.i. per liter) was 72% and the “% action O (observed)” value ([9]; Table 3, comp. I alone 0.6 ppm) was 14%. For the same molecule, the “% action O (observed)” value ([9]; Table 3, comp. I alone 2 ppm) was 33%, the “% action O (observed)” value ([10]; Table 21, comp. I alone 5 g a.i. per ha) was 29% and the “% action O (observed)” value ([10]; Table 22, comp. I alone 5 g a.i. per ha) was 29%. It also gave an inhibition at 3 µM ([11]; Table 30, Ws, BTH alone 0.003 mM, read-out: Fungal Growth Inhibition % O (observed)) of 0%, an inhibition at 10 µM ([11]; Table 30, Ws, read-out: Fungal Growth Inhibition % O (observed)) of 20% and an inhibition at 10 µM ([11]; Table 31, Ws, read-out: Fungal Growth Inhibition % O (observed)) of 30%. The inhibition at 10 µM ([11]; Table 32, Ws, read-out: Fungal Growth Inhibition % O (observed)) was 30%, the inhibition at 10 µM ([11]; text summary of Tables 30-32, Ws plants, read-out: fungal growth inhibition) was 20 to 30% and the “% action O (observed)” value ([12]; Table 14, comp. I alone 0.25 kg a.i. per ha) was 22%. The “% action O (observed)” value ([12]; Table 14, comp. I alone 0.5 kg a.i. per ha) was 50%, the “% action O (observed)” value ([13]; comp. I alone 5 ppm) was 76% and the “% action O (observed)” value ([14]; Table 9, comp. I alone 0.2 ppm) was 0%. For the same molecule, the “% action O (observed)” value ([14]; Table 9, comp. I alone 2 ppm) was 17%, the “% action O (observed)” value ([14]; Table 9, comp. I alone 6 ppm) was 55% and the “% action O (observed)” value ([14]; Table 9, comp. I alone 20 ppm) was 78%. The “% action O (observed)” value ([14]; Table 10, comp. I alone 0.2 ppm) was 0%, the “% action O (observed)” value ([14]; Table 10, comp. I alone 2 ppm) was 17% and the “% action O (observed)” value ([14]; Table 10, comp. I alone 6 ppm) was 55%. For the same molecule, the “% action O (observed)” value ([14]; Table 10, comp. I alone 20 ppm) was 78%, the inhibition at 10 µM ([15]; Hyaloperonospora parasitica, in Arabidopsis thaliana, read-out: Fungal Growth Inhibition % O (observed)) was 0% and the “Fungal Growth Inhibition % O (observed)” value [15] was “no fungal growth inhibition”. For the same molecule, the “Crop yield in kg per hectare O (observed)” value ([16]; Table 18, harvest after sixth spraying, comp. I alone 5 ppm) was 459 kg per hectare, the “% action O (observed)” value ([17]; Table 19, comp. I alone 100 mg a.i. per liter) was 51% and the “% action O (observed)” value ([18]; Table 23, comp. I alone 50 g a.i. per ha) was 19%. For the same molecule, the “% action O (observed)” value ([19]; Table 8, comp. I alone 0.02 ppm) was 6%, the “% action O (observed)” value ([19]; Table 8, comp. I alone 0.2 ppm) was 36% and the “% action O (observed)” value ([19]; Table 8, test 1, comp. I alone 0.06 ppm) was 0%. The “% action O (observed)” value ([19]; Table 8, test 3, comp. I alone 0.06 ppm) was 23% and the “% action O (observed)” value ([20]; Table 24, comp. I alone 2.5 g a.i. per ha) was 32%.
In the case of `O=C(O)c1cc(Cl)nc(Cl)c1` [INA, 2,6-dichloroisonicotinic acid], the “fungal growth (trypan blue, sporulation)” value [21] is reported as “no fungal growth” and the “disease symptoms (visual inspection)” value [22] is reported as “nearly devoid of disease symptoms”.
For `Cc1cc(C2CC2)nc(Nc2ccccc2)n1` [cyprodinil, 4-cyclopropyl-6-methyl-N-phenyl-2-pyrimidinamine], the “% action O (observed)” value ([10]; Table 22, comp. II alone 50 g a.i. per ha) was 2%, the “% action O (observed)” value ([10]; Table 22, comp. II alone 100 g a.i. per ha) was 31% and the “% action O (observed)” value ([20]; Table 24, comp. II alone 12.5 g a.i. per ha) was 30%. For the same molecule, the “% action O (observed)” value ([20]; Table 24, comp. II alone 25 g a.i. per ha) was 51%.
For `CCCC1COC(Cn2cncn2)(c2ccc(Cl)cc2Cl)O1` (stereo not drawn) [propiconazole, 1-[2-(2,4-dichlorophenyl)-4-propyl-1,3-dioxolan-2-ylmethyl]-1H-1,2,4-triazole], the “% action O (observed)” value ([10]; Table 21, comp. II alone 50 g a.i. per ha) was 2%, the “% action O (observed)” value ([10]; Table 21, comp. II alone 100 g a.i. per ha) was 31% and the “% action O (observed)” value ([17]; Table 19, comp. II alone 5 mg a.i. per liter) was 10%. For the same molecule, the “% action O (observed)” value ([18]; Table 23, comp. II alone 50 g a.i. per ha) was 26%.
With “manganese ethylenebis(dithiocarbamate)polymer-zinc complex [mancozeb]” the “% action O (observed)” value ([3]; comp. II alone 100 ppm) was 12%, the “% action O (observed)” value ([13]; comp. II alone 100 ppm) was 8% and the “Crop yield in kg per hectare O (observed)” value ([16]; in vivo) was 8 kg per hectare.
